# Experimental data taken from patent US11235018B2, “Composition for preventing or treating cancer” (OKCHUNDANG CO., LTD., priority 2018, dated 2022).
# Marks after values point to notes of the source that are not given here.
# Key:
# iNOS = experiment: Intratumoral iNOS immune response cells; assay type: in vivo, mice; details: single: gefitinib 120 mg/kg or SKOG 400 mg/kg, oral, 35 days
# PARP = experiment: Intratumoral PARP immune response cells; assay type: in vivo, mice; details: single: gefitinib 120 mg/kg or SKOG 400 mg/kg, oral, 35 days
# IL-10 = experiment: Splenic IL-10 level in NCI-H520 xenograft mice; assay type: in vivo; details: single: gefitinib 120 mg/kg or SKOG 400 mg/kg, oral, 35 days
# Caspase-3 = experiment: Intratumoral caspase-3 immune response cells; assay type: in vivo, mice; details: single: gefitinib 120 mg/kg or SKOG 400 mg/kg, oral, 35 days
# IFN-γ = experiment: Serum IFN-γ level in NCI-H520 xenograft mice; assay type: in vivo; details: single: gefitinib 120 mg/kg or SKOG 400 mg/kg, oral, 35 days
# [1] = Spleen weight in NCI-H520 xenograft mice; assay type: in vivo; details: single: gefitinib 120 mg/kg or SKOG 400 mg/kg, oral, 35 days
# [2] = system: NCI-H520 tumor cell xenograft; experiment: Histopathological change of tumor mass (tumor cell volume, apoptotic cells); assay type: in vivo, mice; details: single: gefitinib 120 mg/kg or SKOG 400 mg/kg, oral, 35 days
# [3] = Histopathological change of spleen; assay type: in vivo, mice; details: single: gefitinib 120 mg/kg or SKOG 400 mg/kg, oral, 35 days
# [4] = Submandibular lymph node weight in NCI-H520 xenograft mice; assay type: in vivo; details: single: gefitinib 120 mg/kg or SKOG 400 mg/kg, oral, 35 days
# [5] = Histopathological change of periovarian fat; assay type: in vivo, mice; details: single: gefitinib 120 mg/kg or SKOG 400 mg/kg, oral, 35 days
# [6] = system: NCI-H520 tumor cell xenograft; experiment: Tumor weight in NCI-H520 xenograft mice; assay type: in vivo; details: single: gefitinib 120 mg/kg or SKOG 400 mg/kg, oral, 35 days
# [7] = system: NCI-H520 tumor cell xenograft; experiment: Tumor volume in NCI-H520 xenograft mice; assay type: in vivo; details: single: gefitinib 120 mg/kg or SKOG 400 mg/kg
# TNF-α [8] = experiment: Splenic TNF-α level in NCI-H520 xenograft mice; assay type: in vivo; details: single: gefitinib 120 mg/kg or SKOG 400 mg/kg, oral, 35 days
# splenic NK cell = experiment: Splenic NK cell activity in NCI-H520 xenograft mice; assay type: in vivo; details: single: gefitinib 120 mg/kg or SKOG 400 mg/kg, oral, 35 days
# IL-6 = experiment: Serum IL-6 level in NCI-H520 xenograft mice; assay type: in vivo; details: single: gefitinib 120 mg/kg or SKOG 400 mg/kg, oral, 35 days
# COX-2 = experiment: Intratumoral COX-2 immune response cells; assay type: in vivo, mice; details: single: gefitinib 120 mg/kg or SKOG 400 mg/kg, oral, 35 days
# IL-1β = experiment: Splenic IL-1β level in NCI-H520 xenograft mice; assay type: in vivo; details: single: gefitinib 120 mg/kg or SKOG 400 mg/kg, oral, 35 days
# [9] = Histopathological change of submandibular lymph nodes; assay type: in vivo, mice; details: single: gefitinib 120 mg/kg or SKOG 400 mg/kg, oral, 35 days
# [10] = Periovarian fat weight in NCI-H520 xenograft mice; assay type: in vivo; details: single: gefitinib 120 mg/kg or SKOG 400 mg/kg, oral, 35 days
# TNF-α [11] = experiment: Intratumoral TNF-α immune response cells; assay type: in vivo, mice; details: single: gefitinib 120 mg/kg or SKOG 400 mg/kg, oral, 35 days
# [12] = Body weight and weight gain in NCI-H520 xenograft mice; assay type: in vivo; details: single: gefitinib 120 mg/kg or SKOG 400 mg/kg
# peritoneal NK cell = experiment: Peritoneal NK cell activity in NCI-H520 xenograft mice; assay type: in vivo; details: single: gefitinib 120 mg/kg or SKOG 400 mg/kg, oral, 35 days
structure (smiles),measurement,setting,value
"COc1cc2ncnc(Nc3ccc(F)c(Cl)c3)c2cc1OCCCN1CCOCC1 [Gefitinib, N-(3-chloro-4-fluorophenyl)-7-methoxy-6-(3-morpholinopropoxy)quinazolin-4-amine]","Percentage of immune-responsive cells, iNOS",iNOS,12.07 %/tumor cells
same,change of proportion of iNOS immune response cells in the tumor tissue compared with tumor xenograft control group,iNOS,−0.50%
same,"Percentage of immune-responsive cells, PARP",PARP,46.98 %/tumor cells
same,change of proportion of PARP immune response cells in the tumor tissue compared with tumor xenograft control group,PARP,223.59%
same,Splenic IL-10 (Interleukin-10) level,IL-10,25.58 ± 11.94^a
same,change of splenic IL-10 level compared with tumor xenograft control group,IL-10,−3.53%
same,"Percentage of immune-responsive cells, Caspase-3",Caspase-3,40.60 %/tumor cells
same,change of proportion of caspase-3 immune response cells in the tumor tissue compared with tumor xenograft control group,Caspase-3,268.77%
same,change of serum IFN-γ level compared with tumor xenograft control group,IFN-γ,−2.85%
same,Spleen (absolute weight),[1],0.051 ± 0.007^a
same,Spleen (relative weight),[1],0.251 ± 0.036^a
same,change of absolute spleen weight compared with tumor xenograft control group,[1],−7.13%
same,change of relative spleen weight compared with tumor xenograft control group,[1],4.11%
same,Percentage of apoptotic cells,[2],49.88%
same,Tumor cell volume,[2],56.28 %/mm^2
same,change of proportion of apoptotic cells in the tumor tissue compared with tumor xenograft control group,[2],560.23%
same,change of proportion of tumor cells in the tumor tissue compared with tumor xenograft control group,[2],−29.01%
same,Number of splenic white pulps,[3],4.63 ± 1.85^a /mm^2
same,Splenic white pulp diameter,[3],187.63 ± 73.54^e μm/white pulp
same,change of number of splenic white pulps compared with tumor xenograft control group,[3],−5.13%
same,change of splenic overall thickness compared with tumor xenograft control group,[3],0.42%
same,change of splenic white pulp diameter compared with tumor xenograft control group,[3],−0.60%
same,Submandibular lymph nodes (absolute weight),[4],0.004 ± 0.001^d
same,change in absolute submandibular lymph node weight compared with tumor xenograft control group,[4],−8.82%
same,change in relative submandibular lymph node weight compared with tumor xenograft control group,[4],1.85%
same,submandibular lymph nodes (relative weight),[4],0.019 ± 0.006^e
same,White fat cell average diameter,[5],12.36 ± 1.95^d μm
same,change of periovarian accumulation fat thickness compared with tumor xenograft control group,[5],−8.19%
same,change of white fat cell average diameter compared with tumor xenograft control group,[5],−6.37%
same,Tumor weight (absolute weight),[6],1.664 ± 0.292^f
same,Tumor weight (relative weight),[6],8.274 ± 1.443^g
same,change in absolute tumor weight compared with tumor xenograft control group,[6],−40.73%
same,change in relative tumor weight compared with tumor xenograft control group,[6],−33.56%
same,"Tumor volume, start of administration [A]",[7]; baseline,462.10 ± 105.87 mm^3
same,Tumor volume change [B − A],"[7]; oral, 35 days",2396.41 ± 329.84 ^a mm^3
same,"Tumor volume, at the time of sacrifice [B]","[7]; oral, 35 days",2858.51 ± 377.01^a mm^3
same,change in tumor volume during drug administration period compared with tumor xenograft control group,"[7]; oral, five weeks",−60.18%
same,Splenic TNF-α (Tumor necrosis factor-α) level,TNF-α [8],26.23 ± 10.81^a
same,change of splenic TNF-α level compared with tumor xenograft control group,TNF-α [8],−0.24%
same,change of splenic NK cell activity compared with tumor xenograft control group,splenic NK cell,−6.32%
same,change of serum IL-6 level compared with tumor xenograft control group,IL-6,6.25%
same,"Percentage of immune-responsive cells, COX-2",COX-2,38.89 %/tumor cells
same,change of proportion of COX-2 immune response cells in the tumor tissue compared with tumor xenograft control group,COX-2,−35.00%
same,Splenic IL-1β (Interleukin-1β) level,IL-1β,8.36 ± 1.96^a
same,change of splenic IL-1β level compared with tumor xenograft control group,IL-1β,−3.18%
same,Number of intracortical follicles,[9],5.38 ± 2.39^d /mm^2
same,change of number of intracortical follicles in the submandibular lymph nodes compared with tumor xenograft control group,[9],−6.52%
same,change of submandibular lymph node cortex thickness compared with tumor xenograft control group,[9],−3.84%
same,change of submandibular lymph node overall thickness compared with tumor xenograft control group,[9],−2.55%
same,cortex thickness,[9],215.75 ± 43.93^d μm/lymph node
same,submandibular lymph node overall thickness,[9],501.50 ± 106.64^a μm/central region
same,Periovarian fat (absolute weight),[10],0.007 ± 0.002^d
same,Periovarian fat (relative weight),[10],0.036 ± 0.011^e
same,change of absolute periovarian fat weight compared with tumor xenograft control group,[10],−13.43%
same,change of relative periovarian fat weight compared with tumor xenograft control group,[10],−2.79%
same,"Percentage of immune-responsive cells, TNF-α",TNF-α [11],7.28 %/tumor cells
same,change of proportion of TNF-α immune response cells in the tumor tissue compared with tumor xenograft control group,TNF-α [11],−6.19%
same,"Body weight, administration initiation",[12]; baseline,19.29 ± 1.29 g
same,Actual body weight (excluding tumor weight),"[12]; oral, 35 days",18.46 ± 0.77^ad g
same,"Body weight, sacrifice","[12]; oral, 35 days",20.13 ± 0.76^fg
same,Weight gain,"[12]; oral, 35 days",−0.83 ± 0.98^ac g
same,change of actual body weight excluding tumor weight compared with tumor xenograft group,"[12]; oral, 35 days",−6.61%
same,change of weight gain during administration period compared with tumor xenograft control group,"[12]; oral, 35 days",−341.95%
same,change of peritoneal NK cell activity compared with tumor xenograft control group,peritoneal NK cell,−7.43%
